The source of these data is patent EP0007995A1, “Chemotherapeutic preparations and their manufacture” (F. HOFFMANN-LA ROCHE & CO. Aktiengesellschaft, priority 1978, dated 1980).

Data set [1] relates to Streptococcus pyogenes β15. The experiment in a line: In vivo activity in infected mouse. Conditions: po; Maus, p.o., gegen Streptococcus pyogenes β15; read-out: CD50 p.o.
For data set [2], the system named is Pseudomonas aeruginosa BA. The experiment in a line: In vivo activity in infected mouse. Conditions: po; Maus, p.o., gegen Pseudomonas aeruginosa BA; read-out: CD50 p.o.
For a further data set, the system named is E. coli 1346. Description: In vivo activity in infected mouse. Conditions: Escherichia coli, po; Maus, p.o., gegen E. coli 1346; read-out: CD50 p.o.
In the next data set the test system is Salmonella typhimurium. Description: In vivo activity in infected mouse. Conditions: Salmonella enterica, po; Maus, p.o., gegen Salmonella typhimurium; read-out: CD50 p.o.
Another data set relates to Proteus mirabilis. The experiment in a line: In vivo activity in infected mouse. Conditions: po; Maus, p.o., gegen Proteus mirabilis; read-out: CD50 p.o.
The next data set can be described thus: Acute toxicity. Conditions: mouse, in vivo.
A short description of another data set: Water solubility. It counts as physicochemical. Here is the method: Wie gefunden wurde, lassen sich mit Fluoramphenicol wässrige Lösungen in Konzentrationen bis zu 0,5 g/10 ml herstellen. Solche Lösungen stellen eine wertvolle parenterale Applikationsform, insbesondere für die intravenöse Injektion und -Infusion dar. Dank seiner guten Wasserlöslichkeit eignet sich Fluoramphenicol auch für die Herstellung von ophthalmologischen Präparaten mit besonders guter Verträglichkeit, insbesondere für die Herstellung von Augentropfen.

The test system of another data set is menschlichen Lymphozyten. The settings on record: human.
For data set [3] the following is noted: in vivo.
The conditions of data set [4]: J. Pharm. Pharmacol. 3 [1951], 143; cited from earlier work.
A short description of a further data set: in vivo. The settings on record: mouse.

Bounds are passed on as bounds.

In the case of `O=C(N[C@H](CO)[C@H](O)c1ccc([N+](=O)[O-])cc1)C(Cl)Cl` [Chloramphenicol, reference compound], the ED50 in data set [1] worked out at 22 mg/kg; in data set [2], 93 mg/kg; in the data set with E. coli 1346, 6.6 mg/kg; in the data set on Salmonella typhimurium, 18 mg/kg; in the data set with Proteus mirabilis it was 5.8 mg/kg. The LD50 (as a rule, the dose expected to kill half of the subjects tested) in the data set “Acute toxicity” (ip) was 1000 to 1500 mg/kg; in the data set “Acute toxicity” (po), 2000 to 3000 mg/kg.
`O=C(N[C@H](CO)[C@H](O)c1ccc([N+](=O)[O-])cc1)C(F)F` [Fluoramphenicol, D-threo-1-(p-Nitrophenyl)-2-difluor-acetamino-l,3-propandiol]: the ED50 in [1] was determined as 11 mg/kg; in data set [2] it was 33 mg/kg; in the data set on E. coli 1346, 6.6 mg/kg; in the data set on Salmonella typhimurium, 19 mg/kg; in the data set with Proteus mirabilis, 5.2 mg/kg. Besides, the “wässrige Lösungen in Konzentrationen” value in the data set “Water solubility” (aqueous solution) is listed as ≤ 0,5 g/10 ml. The Wasserlöslichkeit result in “Water solubility” (result in words) is on record as “unerwartet hohe Wasserlöslichkeit”. In addition, the “Cytotoxizität gegenüber menschlichen Lymphozyten, mal weniger toxisch als Chloramphenicol” value in the data set with menschlichen Lymphozyten is given as around 3 mal. For the same compound, the “Cytotoxizität gegenüber KB-Zellen, mal weniger toxisch als Chloramphenicol” value in the data set with KB-Zellen is listed as 3-5 mal. For the same compound, the “metabolic stability (concluded from urine recovery)” value in [3] is “metabolisch beständig”. In addition, in [3] (po), the Serumkonzentrationen entry is “höhere Serumkonzentrationen als Chloramphenicol”. The “Urinkonzentrationen, mal höher als Chloramphenicol” value in data set [3] (po) is “ca. lO”. For the same compound, the “mal langsamer ausgeschieden als Chloramphenicol” value in [3] (po) was 2-3 mal. In [3] (po), the “totale Urin-recovery an aktivem Fluoramphenicol, mal höher als an aktivem Chloramphenicol” value is on record as “ca. lO”. For the same compound, the biological activity result in data set [4] is given as “biologisch unwirksam”. For the same compound, the results for the LD50 in “in vivo” (ip) and in the data set “in vivo” (po) were 2000 to 3000 mg/kg and 3000 to 4000 mg/kg, respectively.
